Consider two molecules from publication PMC6017655, “In Silico and in Vitro-Guided Identification of Inhibitors of Alkylquinolone-Dependent Quorum Sensing in Pseudomonas aeruginosa” (Molecules : A Journal of Synthetic Chemistry and Natural …, 2018).

Structures are written as SMILES. Read-outs that look alike come from different tables or passages of the source. Bounds are passed on as bounds.

Data set [1] deals with PqsR (pqsA promoter, PA14 mCTX::PpqsA-lux). Briefly: Whole cell biosensor reporter assay, PA14 mCTX::PpqsA-lux. The class given is cell-based, Pseudomonas aeruginosa. The settings on record: for IC50: Mean ± SD, n = 3; for activity at 10 µM: PA14, read-out: PA14 Remaining Activity %; for PqsR inhibitory activity (in words), PA14: screen at 10 µM. The method, then:
(§1) To determine the ability of the quinolines to inhibit PqsR functionality, the P. aeruginosa biosensor strains, PAO1-L and PA14, incorporating a chromosomal mCTX::PpqsA-lux transcriptional fusion, were used. These report on the activation of the pqsA promoter, regulated by PqsR [25]. PAO1-L and PA14 were chosen because they are genetically amenable and belong to the two major P. aeruginosa genomic groups. The quinolone compounds were incubated with the corresponding strain, and luminescence and optical density readings were recorded to monitor the effect of the quinolines on PqsR activity and bacterial growth, respectively. The compounds were screened at 10 µM concentration, and the activity was compared to a control of DMSO (0.1%) (Figure 3a). To be considered a hit, a threshold of at least 50% inhibition of the test compound, relative to the negative control had to be reached, without affecting bacterial growth. […] Concentration-response experiments were then carried out to determine the IC50 values (Figure 3b,c), which are summarised in Table 1.
(§2) Strains PA14 mCTX::PpqsA-lux and PAO1-L mCTX::PpqsA-lux were constructed using plasmid mini-CTX::PpqsA-lux, as previously described, and the assay was performed according to a published protocol. For screening, the compounds were tested at a concentration of 10 µM, which was prepared from a 10 mM stock, in DMSO.
For orientation: Reporter assays use an easily measured gene product as a stand-in for the process of interest.

The subject of data set [2] is PqsR (pqsA promoter, PAO1-L mCTX::PpqsA-lux). Nature of the data set: Whole cell biosensor reporter assay, PAO1-L mCTX::PpqsA-lux. The class given is cell-based, Pseudomonas aeruginosa. The note with it: for IC50: Mean ± SD, n = 3; for activity at 10 µM: PAO1, read-out: PAO1-L Remaining Activity %; for PqsR inhibitory activity (in words), PAO1-L: screen at 10 µM / dose-response. As to the method:
as §1, §2

The next data set deals with PA14. Nature of the data set: Bacterial growth (optical density) in reporter assay, PA14. The settings on record: compound vs DMSO control. Type of data set: cell-based, Pseudomonas aeruginosa. The method, then: as §1
(§3) Figure 3 Whole bacterial cell-based P. aeruginosa compound screen for both PqsR and growth inhibition (a) Activity against PA14 (green) and PAO1-L (purple) PpqsA-lux reporter strains at 10 µM test compound; (b) and (c) Dose-response curves for active compounds against PA14 (b) and PAO1-L (c); (d) and (e) growth curves for PA14 (d) and PAO1-L (e) in the presence of compound or DMSO control.

A further data set relates to PAO1-L. Briefly: Bacterial growth (optical density) in reporter assay, PAO1-L. Type of data set: cell-based, Pseudomonas aeruginosa. The settings on record: compound vs DMSO control. The method, then: as §1, §3
A short description of the next data set: Plasma stability, rat. The class given is in vitro ADME. The note with it: 37 °C, up to 2 h, read-out: Plasma Stability Rat t1/2. The method, then: (§4) Dilutions of a 10 mM test compound DMSO stock solution were prepared so that the final DMSO concentration was 1% v/v and the final test compound concentration tested was 1 µM. Following the addition of the test compound to plasma, the samples were pre-incubated for 10 min prior to the start of the incubation by the addition of the test compound. The test compound was incubated (n = 2; 1 µM final concentration) at 37 °C with plasma for up to 2 h. Aliquots were sampled at several time points and mixed with acetonitrile (containing internal standard) to terminate the reaction and precipitate the proteins. All the samples were mixed, centrifuged and the supernatants analysed by UPLC-MSMS. Parent disappearance and half-life (t 1/2) values were determined from the slope of the parent depletion curve. Control compounds (imidapril, enalapril, tenofovir and/or propantheline), were respectively included.

The nature of another data set: Plasma stability, human. The settings on record: 37 °C; for half-life at 1 µM: human, plasma, up to 2 h, read-out: Plasma Stability Human t 1/2. The class given is in vitro ADME. As to the method: as §4
Data set [3] is described as follows: Hepatic microsomal stability, rat. The note with it: liver microsomes, pH 7.4, 0.5 mg/mL protein, NADPH, 37 °C; for microsomal CLint at 1 µM: read-out: Microsomal Stability Rat Clint (intrinsic clearance); for half-life at 1 µM: read-out: Microsomal Stability Rat t1/2. Type of data set: in vitro ADME. As to the method: (§5) Dilutions of a 1 mM test compound DMSO stock solution were prepared in buffer (typically 0.01 M phosphate buffered saline (pH 7.4) so that the final DMSO concentration was 0.1% v/v and the final test compound concentration tested was 1 µM. Following addition of protein (0.5 mg/mL final) and NADPH, the samples were pre-incubated for 10 min prior to the start of the incubation by the addition of test compound. The test compounds were then incubated (n = 2; 1 µM final concentration) at 37 °C with tissue microsomes. Aliquots were sampled at several time points and mixed with acetonitrile (containing internal standard) to terminate the reaction and precipitate the proteins. All the samples were mixed, centrifuged and the supernatants analysed by UPLC-MS/MS. The intrinsic clearance (Clint) and half-life (t 1/2) values were determined from the slope of the parent depletion curve. Control compounds for low, moderate and high intrinsic clearance, respectively, for both human and rat microsomes, were included.
(Liver microsomes are a subcellular fraction often used to study metabolism.)

Data set [4] is described as follows: Hepatic microsomal stability, human. Type of data set: in vitro ADME. The note with it: liver microsomes, pH 7.4, 0.5 mg/mL protein, NADPH, 37 °C; for half-life at 1 µM: read-out: Microsomal Stability Human t1/2. The method, then:
as §5

In a further data set the test system is AQ production in PA14. Briefly: Alkylquinolone (HHQ, PQS, HQNO) production by LC-MS/MS, PA14. The class given is cell-based, Pseudomonas aeruginosa. The note with it: 3x IC50, 16 h, culture supernatant. As to the method:
(§6) HQNO, can protect Staphylococcus aureus from vancomycin [31] and contributes to the environmental competitiveness of P. aeruginosa, through its activity as a potent inhibitor of the cytochrome bc1 complex. […] LC-MS/MS was used to quantify the major AQs HHQ, PQS and HQNO after incubation of the P. aeruginosa strains with the hit compounds, for 16 h. The assay was performed using both PAO1-L and PA14 strains which were treated with PqsR antagonists at concentrations three-fold higher than their IC50 values. The results obtained depended on the inhibitor and strain tested (Figure 5).
(§7) For each test sample, 100 µL of sterile filtered supernatant (the same preparation as for pyocyanin) was spiked with 10 µL of an internal standard solution (10 µM d4-PQS in MeOH), and diluted with water, to a total volume of 500 µL. Samples were then extracted three times with an 0.5 mL aliquot of ethyl acetate, vortex mixing the aqueous/organic mix for 2 min, then removing the organic phase once the layers had successfully partitioned. For each sample, the combined organic extracts were dried under vacuum and re-dissolved in 100 µL MeOH prior to analysis. For the LC-MS/MS analysis of supernatant extracts, the chromatography was achieved using a Shimadzu series 10AD VP LC system (Columbia, MD, USA). The LC column, maintained at 40 °C, was a Phenomenex Gemini C18 (3.0 µm, 100 × 3.0 mm) (Macclesfield, Cheshire, UK) with an appropriate guard column. Mobile phase A was 0.1% (v/v) formic acid in water containing 2 mM 2-picolinic acid, and mobile phase B 0.1% (v/v) formic acid in methanol. The flow rate throughout the chromatographic separation was 450 µL/min. After an injection of a 2 µL/sample, a binary gradient, beginning initially at 30% B, increased linearly to 99% B over 5 min. The composition remained at 99% B for 3 min, decreased to 30% B over 1 min, and stayed at this composition for 4 min, to allow for column equilibration. […] Where chromatographic peaks for HHQ, HQNO and PQS were detected, a peak area was determined, and analyte peak area/internal standard peak area calculated.

A further data set deals with AQ production in PAO1-L. Nature of the data set: Alkylquinolone (HHQ, PQS, HQNO) production by LC-MS/MS, PAO1-L. The note with it: 3x IC50, 16 h, culture supernatant. Type of data set: cell-based, Pseudomonas aeruginosa. The method, then: as §6, §7
The mark [5] stands for this setting: Pseudomonas aeruginosa, PA14, read-out: IC50 PA14, PpqsA-lux reporter.
Setting [6] is: Pseudomonas aeruginosa, PAO1, read-out: IC50 PAO1-L, PpqsA-lux reporter.
The mark [7] stands for this setting: read-out: IC50 PAO1-L, PpqsA-lux reporter.

As usually defined, the IC50 is the concentration that inhibits the measured activity by half. Broadly, the microsomal CLint is the capacity of the preparation to metabolise the compound, expressed as a volume cleared per time. Turning to `CC(=O)N1N=C(c2ccccc2)CC1c1cccc(Nc2ccnc3cc(C(F)(F)F)ccc23)c1` (stereo not shown) [IIi], the IC50 was determined as 5 µM in data set [1] (setting [5]); 4.9 ± 0.3 µM in data set [1] (read-out: IC50 PA14, PpqsA-lux reporter); 5 µM in [2] (setting [6]); 5.14 ± 0.6 µM in data set [2] (setting [7]). Besides, the figures for the activity at 10 µM in data set [1] (Pseudomonas aeruginosa) and in data set [2] (Pseudomonas aeruginosa) were 16.8 ± 1.01% and 26.1 ± 0.99%, respectively. For the same molecule, the “PqsR inhibitory activity (in words), PA14” value in [1] is recorded as “strong PqsR inhibitory activity”. Also, in data set [2], the “PqsR inhibitory activity (in words), PAO1-L” value was “strong PqsR inhibitory activity”. Also, the “Effect on bacterial growth, PA14” value in the data set on PA14 was “without interfering with bacterial growth”. Moreover, the “Effect on bacterial growth, PAO1-L” value with PAO1-L is on record as “without interfering with bacterial growth”. In addition, the half-life at 1 µM in “Plasma stability, rat” is more than 240 min; in “Plasma stability, human”, 157 min; in [3], 21.1 min; in [4], 19 min. In “Plasma stability, human” (1 µM), the “Plasma stability (in words), human plasma” value is on record as “greatest plasma stability”. Also, the microsomal CLint at 1 µM in [3] was determined as 65.7 µL/min/mg; in data set [4], 72.9 µL/min/mg.

As to `O=CN1N=C(c2ccccc2)CC1c1cccc(Nc2ccnc3cc(C(F)(F)F)ccc23)c1` (stereo not shown) [Ii], the IC50 in [1] (setting [5]) came to 5 ± 0.82 µM; in data set [2] (setting [6]), 5 µM; in [2] (setting [7]) it was 5.1 ± 0.32 µM. Further, the activity at 10 µM in [1] (Pseudomonas aeruginosa) stood at 16.6 ± 1.3%; in [2] (Pseudomonas aeruginosa), 15.6 ± 2.53%. The “PqsR inhibitory activity (in words), PA14” value in [1] is reported as “strong PqsR inhibitory activity”. Further, in data set [2], the “PqsR inhibitory activity (in words), PAO1-L” value is “strong PqsR inhibitory activity”. Also, the “Effect on bacterial growth, PA14” value in the data set on PA14 is listed as “without interfering with bacterial growth”. Further, in the data set on PAO1-L, the “Effect on bacterial growth, PAO1-L” value is recorded as “without interfering with bacterial growth”. For the same molecule, the “Inhibition of AQ production (in words), PA14” value in the data set on AQ production in PA14 is “not observed”. For the same molecule, in the data set with AQ production in PAO1-L, the “Inhibition of AQ production (in words), PAO1-L” value was “greatest inhibition”. In addition, the half-life at 1 µM in “Plasma stability, rat” is more than 240 min; in “Plasma stability, human” it was 69.1 min; in data set [3], 25.7 min; in [4], 17.2 min. The microsomal CLint at 1 µM amounted to 54.1 µL/min/mg in data set [3] and 80.7 µL/min/mg in data set [4].
